Test results from PMC12748989 (Nature Communications, 2025).

Columns and labels:
PBMC = settings: 12.5 µM

SMILES | Average (percentage cell inhibition), Mastoparan PBMC (PBMC) | Average (percentage cell inhibition), Dmastoparan MDA-MB231 12.5uM (MDA-MB-231 cells)
CC[C@H](C)[C@H](N)C(=O)N[C@@H](CC(N)=O)C(=O)N[C@@H](CC(C)C)C(=O)N[C@@H](CCCCN)C(=O)N[C@@H](C)C(=O)N[C@@H](CC(C)C)C(=O)N[C@@H](C)C(=O)N[C@@H](C)C(=O)N[C@@H](CC(C)C)C(=O)N[C@@H](C)C(=O)N[C@@H](CCCCN)C(=O)N[C@@H](CCCCN)C(=O)N[C@H](C(=O)N1CCC[C@H]1C(N)=O)[C@@H](C)CC [P14] | -11.4473% | 0.693%
CC[C@H](C)[C@H](NC(=O)[C@H](CCCCN)NC(=O)[C@H](CCCCN)NC(=O)[C@H](C)NC(=O)[C@H](CC(C)C)NC(=O)[C@H](C)NC(=O)[C@H](C)NC(=O)[C@H](CC(C)C)NC(=O)[C@H](C)NC(=O)[C@H](CCCCN)NC(=O)[C@H](CC(C)C)NC(=O)[C@H](CC(N)=O)NC(=O)[C@@H](N)CCC(N)=O)C(=O)N[C@@H](CC(C)C)C(N)=O [Q1] | 13.6421% | 44.2177%
CC[C@H](C)[C@H](N)C(=O)N[C@@H](CCC(N)=O)C(=O)N[C@@H](CC(C)C)C(=O)N[C@@H](CCCCN)C(=O)N[C@@H](C)C(=O)N[C@@H](CC(C)C)C(=O)N[C@@H](C)C(=O)N[C@@H](C)C(=O)N[C@@H](CC(C)C)C(=O)N[C@@H](C)C(=O)N[C@@H](CCCCN)C(=O)N[C@@H](CCCCN)C(=O)N[C@H](C(=O)N[C@@H](CC(C)C)C(N)=O)[C@@H](C)CC [Q2] | 13.2802% | 33.3572%
CC[C@H](C)[C@H](N)C(=O)N[C@@H](CC(N)=O)C(=O)N[C@@H](CCC(N)=O)C(=O)N[C@@H](CCCCN)C(=O)N[C@@H](C)C(=O)N[C@@H](CC(C)C)C(=O)N[C@@H](C)C(=O)N[C@@H](C)C(=O)N[C@@H](CC(C)C)C(=O)N[C@@H](C)C(=O)N[C@@H](CCCCN)C(=O)N[C@@H](CCCCN)C(=O)N[C@H](C(=O)N[C@@H](CC(C)C)C(N)=O)[C@@H](C)CC [Q3] | 10.4738% | 20.3646%
CC[C@H](C)[C@H](N)C(=O)N[C@@H](CC(N)=O)C(=O)N[C@@H](CC(C)C)C(=O)N[C@@H](CCC(N)=O)C(=O)N[C@@H](C)C(=O)N[C@@H](CC(C)C)C(=O)N[C@@H](C)C(=O)N[C@@H](C)C(=O)N[C@@H](CC(C)C)C(=O)N[C@@H](C)C(=O)N[C@@H](CCCCN)C(=O)N[C@@H](CCCCN)C(=O)N[C@H](C(=O)N[C@@H](CC(C)C)C(N)=O)[C@@H](C)CC [Q4] | -3.9555% | 34.9808%
CC[C@H](C)[C@H](N)C(=O)N[C@@H](CC(N)=O)C(=O)N[C@@H](CC(C)C)C(=O)N[C@@H](CCCCN)C(=O)N[C@@H](CCC(N)=O)C(=O)N[C@@H](CC(C)C)C(=O)N[C@@H](C)C(=O)N[C@@H](C)C(=O)N[C@@H](CC(C)C)C(=O)N[C@@H](C)C(=O)N[C@@H](CCCCN)C(=O)N[C@@H](CCCCN)C(=O)N[C@H](C(=O)N[C@@H](CC(C)C)C(N)=O)[C@@H](C)CC [Q5] | 0.7115% | 41.3502%
CC[C@H](C)[C@H](N)C(=O)N[C@@H](CC(N)=O)C(=O)N[C@@H](CC(C)C)C(=O)N[C@@H](CCCCN)C(=O)N[C@@H](C)C(=O)N[C@@H](CCC(N)=O)C(=O)N[C@@H](C)C(=O)N[C@@H](C)C(=O)N[C@@H](CC(C)C)C(=O)N[C@@H](C)C(=O)N[C@@H](CCCCN)C(=O)N[C@@H](CCCCN)C(=O)N[C@H](C(=O)N[C@@H](CC(C)C)C(N)=O)[C@@H](C)CC [Q6] | -3.273% | -10.4473%
CC[C@H](C)[C@H](N)C(=O)N[C@@H](CC(N)=O)C(=O)N[C@@H](CC(C)C)C(=O)N[C@@H](CCCCN)C(=O)N[C@@H](C)C(=O)N[C@@H](CC(C)C)C(=O)N[C@@H](CCC(N)=O)C(=O)N[C@@H](C)C(=O)N[C@@H](CC(C)C)C(=O)N[C@@H](C)C(=O)N[C@@H](CCCCN)C(=O)N[C@@H](CCCCN)C(=O)N[C@H](C(=O)N[C@@H](CC(C)C)C(N)=O)[C@@H](C)CC [Q7] | 9.246% | 23.653%
CC[C@H](C)[C@H](N)C(=O)N[C@@H](CC(N)=O)C(=O)N[C@@H](CC(C)C)C(=O)N[C@@H](CCCCN)C(=O)N[C@@H](C)C(=O)N[C@@H](CC(C)C)C(=O)N[C@@H](C)C(=O)N[C@@H](CCC(N)=O)C(=O)N[C@@H](CC(C)C)C(=O)N[C@@H](C)C(=O)N[C@@H](CCCCN)C(=O)N[C@@H](CCCCN)C(=O)N[C@H](C(=O)N[C@@H](CC(C)C)C(N)=O)[C@@H](C)CC [Q8] | 5.553% | 46.0978%
CC[C@H](C)[C@H](N)C(=O)N[C@@H](CC(N)=O)C(=O)N[C@@H](CC(C)C)C(=O)N[C@@H](CCCCN)C(=O)N[C@@H](C)C(=O)N[C@@H](CC(C)C)C(=O)N[C@@H](C)C(=O)N[C@@H](C)C(=O)N[C@@H](CCC(N)=O)C(=O)N[C@@H](C)C(=O)N[C@@H](CCCCN)C(=O)N[C@@H](CCCCN)C(=O)N[C@H](C(=O)N[C@@H](CC(C)C)C(N)=O)[C@@H](C)CC [Q9] | 2.087% | 30.6331%
CC[C@H](C)[C@H](N)C(=O)N[C@@H](CC(N)=O)C(=O)N[C@@H](CC(C)C)C(=O)N[C@@H](CCCCN)C(=O)N[C@@H](C)C(=O)N[C@@H](CC(C)C)C(=O)N[C@@H](C)C(=O)N[C@@H](C)C(=O)N[C@@H](CC(C)C)C(=O)N[C@@H](CCC(N)=O)C(=O)N[C@@H](CCCCN)C(=O)N[C@@H](CCCCN)C(=O)N[C@H](C(=O)N[C@@H](CC(C)C)C(N)=O)[C@@H](C)CC [Q10] | 12.3938% | 6.186%
CC[C@H](C)[C@H](N)C(=O)N[C@@H](CC(N)=O)C(=O)N[C@@H](CC(C)C)C(=O)N[C@@H](CCCCN)C(=O)N[C@@H](C)C(=O)N[C@@H](CC(C)C)C(=O)N[C@@H](C)C(=O)N[C@@H](C)C(=O)N[C@@H](CC(C)C)C(=O)N[C@@H](C)C(=O)N[C@@H](CCC(N)=O)C(=O)N[C@@H](CCCCN)C(=O)N[C@H](C(=O)N[C@@H](CC(C)C)C(N)=O)[C@@H](C)CC [Q11] | 14.9552% | 41.2471%
CC[C@H](C)[C@H](N)C(=O)N[C@@H](CC(N)=O)C(=O)N[C@@H](CC(C)C)C(=O)N[C@@H](CCCCN)C(=O)N[C@@H](C)C(=O)N[C@@H](CC(C)C)C(=O)N[C@@H](C)C(=O)N[C@@H](C)C(=O)N[C@@H](CC(C)C)C(=O)N[C@@H](C)C(=O)N[C@@H](CCCCN)C(=O)N[C@@H](CCC(N)=O)C(=O)N[C@H](C(=O)N[C@@H](CC(C)C)C(N)=O)[C@@H](C)CC [Q12] | -3.934% | 35.4495%
CC[C@H](C)[C@H](N)C(=O)N[C@@H](CC(N)=O)C(=O)N[C@@H](CC(C)C)C(=O)N[C@@H](CCCCN)C(=O)N[C@@H](C)C(=O)N[C@@H](CC(C)C)C(=O)N[C@@H](C)C(=O)N[C@@H](C)C(=O)N[C@@H](CC(C)C)C(=O)N[C@@H](C)C(=O)N[C@@H](CCCCN)C(=O)N[C@@H](CCCCN)C(=O)N[C@@H](CCC(N)=O)C(=O)N[C@@H](CC(C)C)C(N)=O [Q13] | -1.132% | 9.2166%
CC[C@H](C)[C@H](N)C(=O)N[C@@H](CC(N)=O)C(=O)N[C@@H](CC(C)C)C(=O)N[C@@H](CCCCN)C(=O)N[C@@H](C)C(=O)N[C@@H](CC(C)C)C(=O)N[C@@H](C)C(=O)N[C@@H](C)C(=O)N[C@@H](CC(C)C)C(=O)N[C@@H](C)C(=O)N[C@@H](CCCCN)C(=O)N[C@@H](CCCCN)C(=O)N[C@H](C(=O)N[C@@H](CCC(N)=O)C(N)=O)[C@@H](C)CC [Q14] | 1.109% | 0.3995%
CC[C@H](C)[C@H](NC(=O)[C@H](CCCCN)NC(=O)[C@H](CCCCN)NC(=O)[C@H](C)NC(=O)[C@H](CC(C)C)NC(=O)[C@H](C)NC(=O)[C@H](C)NC(=O)[C@H](CC(C)C)NC(=O)[C@H](C)NC(=O)[C@H](CCCCN)NC(=O)[C@H](CC(C)C)NC(=O)[C@H](CC(N)=O)NC(=O)[C@@H](N)CCCNC(=N)N)C(=O)N[C@@H](CC(C)C)C(N)=O [R1] | -2.103% | 31.3783%
CC[C@H](C)[C@H](N)C(=O)N[C@@H](CCCNC(=N)N)C(=O)N[C@@H](CC(C)C)C(=O)N[C@@H](CCCCN)C(=O)N[C@@H](C)C(=O)N[C@@H](CC(C)C)C(=O)N[C@@H](C)C(=O)N[C@@H](C)C(=O)N[C@@H](CC(C)C)C(=O)N[C@@H](C)C(=O)N[C@@H](CCCCN)C(=O)N[C@@H](CCCCN)C(=O)N[C@H](C(=O)N[C@@H](CC(C)C)C(N)=O)[C@@H](C)CC [R2] | 6.823% | 40.227%
CC[C@H](C)[C@H](N)C(=O)N[C@@H](CC(N)=O)C(=O)N[C@@H](CCCNC(=N)N)C(=O)N[C@@H](CCCCN)C(=O)N[C@@H](C)C(=O)N[C@@H](CC(C)C)C(=O)N[C@@H](C)C(=O)N[C@@H](C)C(=O)N[C@@H](CC(C)C)C(=O)N[C@@H](C)C(=O)N[C@@H](CCCCN)C(=O)N[C@@H](CCCCN)C(=O)N[C@H](C(=O)N[C@@H](CC(C)C)C(N)=O)[C@@H](C)CC [R3] | -2.846% | 24.609%
CC[C@H](C)[C@H](N)C(=O)N[C@@H](CC(N)=O)C(=O)N[C@@H](CC(C)C)C(=O)N[C@@H](CCCNC(=N)N)C(=O)N[C@@H](C)C(=O)N[C@@H](CC(C)C)C(=O)N[C@@H](C)C(=O)N[C@@H](C)C(=O)N[C@@H](CC(C)C)C(=O)N[C@@H](C)C(=O)N[C@@H](CCCCN)C(=O)N[C@@H](CCCCN)C(=O)N[C@H](C(=O)N[C@@H](CC(C)C)C(N)=O)[C@@H](C)CC [R4] | 0.667% | 36.9563%
